Results on eight compounds are retold here after patent publication US20230293551A1, “USE OF OXYGENATED CHOLESTEROL SULFATES FOR TREATING AUTOIMMUNE CONDITIONS” (Durect Corporation, priority 2020, published 2023).

Where only a bound is given, the exact number is not on record here.

Data set [1] is described as follows: Metabolite profiling of plasma, urine, feces after intravenous dose. It counts as in vivo, rats. As to the method:
(§1) Nine male Sprague Dawley rats (Group 1) were designated for the pharmacokinetic phase, 3 male Sprague Dawley rats (Group 2) for the excretion mass balance phase, and 7 male Sprague Dawley rats (Group 3) and 9 male Long Evans rats (Group 4) for the tissue distribution phase. All animals received a single intravenous dose of [^14C]-25HC3S at 10 mg/kg and a target radioactivity of 225 µCi/kg. Blood samples were collected from all Group 1 animals at approximately 0.083, 0.25, 0.5, 1, 2, 4, 8, 12, 24, 48, and 72 hours post-dose. Urine and feces were collected from all Group 2 animals periodically through 168 hours post-dose. […] Following blood collection, animals were euthanized by CO2 inhalation and carcasses frozen in a dry ice/hexane bath for processing by quantitative whole body autoradiography. Whole blood, plasma, urine, feces, cage rinse, and cage wash were analyzed for total radioactivity by liquid scintillation counting.

Data set [2] is described as follows: Tissue distribution after intravenous dose in pigmented rats. The format is in vivo, male Long Evans rats. To be noted: intravenous 10 mg/kg, first 168 hours post-dose.
Excerpt: (§2) The objectives of this study were to determine the plasma pharmacokinetics of [4-^14C]-25HC3S-derived radioactivity in male Sprague Dawley rats, determine the routes of elimination and excretion mass balance of [4-^14C]-25HC3S-derived radioactivity in male Sprague Dawley rats, determine the tissue distribution and tissue pharmacokinetics of [4-^14C]-25HC3S-derived radioactivity using quantitative whole body autoradiography methods in male Sprague Dawley and Long Evans rats following a single intravenous (bolus) dose, and to provide plasma, urine, and fecal homogenate samples for metabolite profiling of [4-^14C]-25HC3S-derived radioactivity.
as §1, with “µCi/kg.” for “µCi/kg. Blood samples were collected from all Group 1 animals at approximately 0.083, 0.25, 0.5, 1, 2, 4, 8, 12, 24, 48, and 72 hours post-dose. Urine and feces were collected from all Group 2 animals periodically through 168 hours post-dose.”

Data set [3] can be described thus: Tissue distribution by quantitative whole body autoradiography after oral dose. It counts as in vivo, male Sprague Dawley rats. To be noted: oral 75 mg/kg.
Data set [4] can be described thus: Excretion mass balance after single intravenous dose. It counts as in vivo, male Sprague Dawley rats. To be noted: intravenous 10 mg/kg, over 168 hours.
Excerpt: as §2
as §1, with “µCi/kg.” for “µCi/kg. Blood samples were collected from all Group 1 animals at approximately 0.083, 0.25, 0.5, 1, 2, 4, 8, 12, 24, 48, and 72 hours post-dose. Urine and feces were collected from all Group 2 animals periodically through 168 hours post-dose.”

The nature of data set [5]: Tissue distribution by quantitative whole body autoradiography after intravenous dose. To be noted: intravenous 10 mg/kg. The format is in vivo, male Sprague Dawley rats.
Excerpt: as §2, §1

The nature of data set [6]: Plasma pharmacokinetics of radioactivity after single oral (gavage) dose. The format is in vivo, rats. The following applies: single oral (gavage) dose 75 mg/kg. The method, then:
The terminal elimination phase T½ was 27.3 hours.

The nature of data set [7]: Plasma pharmacokinetics of radioactivity after single intravenous dose. The format is in vivo, male Sprague Dawley rats. To be noted: single intravenous (bolus) dose 10 mg/kg.
Excerpt: as §2
as §1, with “µCi/kg.” for “µCi/kg. Blood samples were collected from all Group 1 animals at approximately 0.083, 0.25, 0.5, 1, 2, 4, 8, 12, 24, 48, and 72 hours post-dose. Urine and feces were collected from all Group 2 animals periodically through 168 hours post-dose.”

Another data set relates to DNMT1/3a/3b. In words: Enzyme kinetic study, overall statements on DNMT1/3a/3b activities. It counts as biochemical.
The target of another data set is DNMT1 (Homo sapiens, UniProt P26358). Nature of the data set: DNMT1 activity assay (3H-SAM, filter-paper radioactivity). It counts as biochemical.
DNMT1, sequence (P26358 whole entry, species assumed): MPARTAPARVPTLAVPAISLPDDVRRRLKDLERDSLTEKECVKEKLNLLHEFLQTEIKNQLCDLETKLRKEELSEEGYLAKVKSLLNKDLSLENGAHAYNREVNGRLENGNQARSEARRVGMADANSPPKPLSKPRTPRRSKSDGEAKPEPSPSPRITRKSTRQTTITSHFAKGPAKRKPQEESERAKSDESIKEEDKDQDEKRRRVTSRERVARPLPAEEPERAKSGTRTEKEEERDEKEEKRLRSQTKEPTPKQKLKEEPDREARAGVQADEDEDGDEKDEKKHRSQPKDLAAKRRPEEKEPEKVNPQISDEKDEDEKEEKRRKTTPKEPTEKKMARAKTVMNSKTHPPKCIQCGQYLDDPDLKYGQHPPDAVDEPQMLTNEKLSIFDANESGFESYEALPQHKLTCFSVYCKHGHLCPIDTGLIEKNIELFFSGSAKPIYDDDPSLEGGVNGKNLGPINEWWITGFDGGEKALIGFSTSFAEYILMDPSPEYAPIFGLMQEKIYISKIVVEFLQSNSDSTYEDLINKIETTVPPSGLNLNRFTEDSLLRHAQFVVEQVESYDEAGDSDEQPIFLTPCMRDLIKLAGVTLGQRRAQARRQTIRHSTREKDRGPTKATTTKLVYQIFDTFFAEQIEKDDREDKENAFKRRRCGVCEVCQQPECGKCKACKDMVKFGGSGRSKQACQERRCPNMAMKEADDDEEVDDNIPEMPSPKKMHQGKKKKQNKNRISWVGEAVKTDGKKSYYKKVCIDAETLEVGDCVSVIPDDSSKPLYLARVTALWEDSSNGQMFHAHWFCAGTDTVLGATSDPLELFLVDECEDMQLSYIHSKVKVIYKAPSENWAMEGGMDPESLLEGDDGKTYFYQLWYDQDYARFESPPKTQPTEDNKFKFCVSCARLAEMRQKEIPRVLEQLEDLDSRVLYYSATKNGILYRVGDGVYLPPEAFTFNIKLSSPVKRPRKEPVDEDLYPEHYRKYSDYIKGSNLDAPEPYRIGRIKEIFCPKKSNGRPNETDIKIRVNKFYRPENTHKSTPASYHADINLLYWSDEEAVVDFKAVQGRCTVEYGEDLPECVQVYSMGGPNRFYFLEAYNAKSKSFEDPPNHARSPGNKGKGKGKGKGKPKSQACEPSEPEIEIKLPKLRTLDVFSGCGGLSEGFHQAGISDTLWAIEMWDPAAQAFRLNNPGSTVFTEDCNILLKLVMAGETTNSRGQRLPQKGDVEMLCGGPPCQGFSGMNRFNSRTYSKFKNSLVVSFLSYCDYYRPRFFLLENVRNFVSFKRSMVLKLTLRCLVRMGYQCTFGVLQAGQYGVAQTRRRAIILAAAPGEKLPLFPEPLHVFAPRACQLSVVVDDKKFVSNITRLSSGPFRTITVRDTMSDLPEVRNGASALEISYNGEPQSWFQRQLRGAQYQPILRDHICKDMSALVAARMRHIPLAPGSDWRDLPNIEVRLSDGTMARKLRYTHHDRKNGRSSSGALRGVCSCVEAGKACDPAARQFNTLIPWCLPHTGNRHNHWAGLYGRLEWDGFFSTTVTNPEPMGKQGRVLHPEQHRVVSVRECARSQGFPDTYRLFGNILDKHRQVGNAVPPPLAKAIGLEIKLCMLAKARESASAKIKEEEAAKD
Data set [8] in a line: Metabolite profiling of plasma and feces after oral dose. To be noted: oral 75 mg/kg. It counts as in vivo, rats. The text has this:
Radiolabeled components in plasma and feces extracts were profiled and identified using radio-high performance liquid chromatography (HPLC) and high performance liquid chromatography/mass spectrometry (HPLC/MS) methods.

Method for DNMT1/3a/3b: For the DNMT1 activity assay, the substrate solution, 0.001 mg/ml Poly(dI-dC):Poly(dI-dC) in 50 mM Tris-HCl, pH 7.5, 50 mM NaCl, 5 mM EDTA, 5 mM DTT, 1 mM PMSF, 5% glycerol, 0.01% Brij35, 1% DMSO was used. For the DNMT3a/3b activity assay, 0.0075 mg/ml Lambda DNA in 50 mM Tris-HCl, pH 7.5, 50 mM NaCl, 5 mM EDTA, 5 mM DTT, 1 mM PMSF, 5% glycerol, 1% DMSO, was used. The indicated DNMT1, DNMT3a, or DNMT3b was added to the appropriate substrate solution and gently mixed. […] The mixtures were first incubated for 15 min, then ^3H-SAM was added to the reaction mixture to initiate the reaction, and the mixture was incubated for 60 min at 30° C. Following incubation, the reaction mixture was finally transferred to filter-paper for detection of radioactivity counts.

Take desmosterol sulfate: the “detection in plasma, urine, or feces samples” value in [1] was “Neither desmosterol sulfate nor 25-hydroxycholesterol was detected”.
As to `C[C@H](CCCC(C)(C)O)[C@H]1CC[C@H]2[C@@H]3CC=C4[14CH2][C@@H](OS(=O)(=O)O)CC[C@]4(C)[C@H]3CC[C@]12C` [[4-^14C]-25HC3S], the “plasma or whole blood concentrations versus Sprague Dawley rats” value in data set [2] is given as “no substantial difference in plasma or whole blood concentrations”. Also, in data set [3], the “Uveal tract and brain concentrations” value is “approximately 1000 ng equiv./g”; the “plasma:whole blood AUClast ratio” value is recorded as 1.12; the “tissue Tmax” value was no more than 6 hours postdose; the “tissue distribution of radioactivity” value is “broadly distributed and detected by quantitative whole body autoradiography in all tissues except the eye (lens)”. In addition, in data set [3], the “whole blood AUClast” value was 127,000 h•ng equiv./g. Also, in data set [3] (calculated using AUClast), the “tissue:plasma ratio, adrenal gland” value is 6.64; the “tissue:plasma ratio, liver” value was 6.96; the “tissue:plasma ratio, small intestine (wall)” value was 15.4. Moreover, the “recovered radioactivity in feces” value in data set [4] came to 83.0%. In data set [5], the “AUClast in the liver” value is listed as ≤ 364,000 h.ng/g; the “plasma:whole blood AUClast ratio” value is 0.79; the “tissue distribution of radioactivity” value is “broadly distributed and detected by quantitative whole body autoradiography in all tissues except the eye (lens)”. In data set [5] (calculated using AUClast), the “tissue:plasma ratio, liver” value was 11.4 and the “tissue:plasma ratio, small intestine (wall)” value is reported as 7.44. Further, the “plasma AUClast” value in [6] is reported as 96,400 h•ng equiv./g. In addition, the “terminal elimination phase T½” value in data set [7] is 26.6 h.
As to `CC(CO)CCC[C@@H](C)[C@H]1CC[C@H]2[C@@H]3CC=C4C[C@@H](OS(=O)(=O)O)CC[C@]4(C)[C@H]3CC[C@]12C` (stereo partly drawn) [27HC3S, 27-hydroxycholesterol-3-sulfate], the “effect on enzymatic activities (DNMTs)” value with DNMT1/3a/3b is recorded as “potent inhibitors of DNMTs”.
On to `C[C@H](CCCC(C)(C)O)[C@H]1CC[C@H]2[C@@H]3CC=C4C[C@@H](OS(=O)(=O)O)CC[C@]4(C)[C@H]3CC[C@]12C` [25HC3S, 25-hydroxycholesterol-3-sulfate], for which, in [1] (pools 0 to 48 hours postdose), the “% of dose in feces” value is listed as 2 % of dose. The “share of the exposure (AUC) to 25HC3S related radioactivity in plasma” value in [1] (up to 1 hour postdose) is “approximately 54%”. Besides, the “effect on enzymatic activities (DNMTs)” value in the data set with DNMT1/3a/3b was “potent inhibitors of DNMTs”. Moreover, the IC50 on DNMT1/3a/3b (DNMT-1, 3a, 3b, read-out: IC50s (kinetic study)) was in the range of 1 to 10 µM.
As to `C[C@H](CCCC(C)(C)O)[C@H]1CC[C@H]2[C@@H]3CC=C4C[C@@H](O)CC[C@]4(C)[C@H]3CC[C@]12C` [25HC, 25-Hydroxycholesterol], the “activates DNMT-1 activity” value at DNMT1 is 8 fold. For the same compound, the “relative observed intensity (ROI) in plasma” value in data set [8] (2 hour postdose plasma) came out at 37%. Besides, in data set [8] (pools 0 to 168 hours postdose), the “% of total dose in feces” value is listed as 1.9 % of total dose. Further, the “detection in plasma, urine, or feces samples” value in [1] was “Neither desmosterol sulfate nor 25-hydroxycholesterol was detected”.
Consider `CC(C)CCC[C@@H](C)[C@H]1CC[C@H]2[C@@H]3CC=C4C[C@@H](OS(=O)(=O)O)CC[C@]4(C)[C@H]3CC[C@]12C` [Xol3S, Cholesterol 3-Sulfate, reference compound], for which the “effect on enzymatic activities (DNMTs)” value in the data set with DNMT1/3a/3b is “did not significantly affect enzymatic activities”.
On the same count and under the same terms, the value for `CC(C)CCC[C@@H](C)[C@H]1CC[C@H]2[C@@H]3CC=C4C[C@@H](O)CC[C@]4(C)[C@H]3CC[C@]12C` [Xol, Cholesterol] was “did not significantly affect enzymatic activities”; that for `C[C@@H](CO)CCC[C@@H](C)[C@H]1CC[C@H]2[C@@H]3CC=C4C[C@@H](O)CC[C@]4(C)[C@H]3CC[C@]12C` [27HC, 27-Hydroxycholesterol, reference compound] was “had no effect on other enzymes”.
